Experimental data as given in US10662407B2, “Method for controlling differentiation of embryonic stem cells into adipocytes or kidney precursor cells by regulating SIRT1 expression” (INDUSTRIAL COOPERATION FOUNDATION CHONBUK NATIONAL …, priority 2015, dated 2020).

What was measured:
Six2 mRNA expression = experiment: Quantitative PCR of Six2 mRNA during differentiation of embryonic stem cells into kidney precursor cells; assay type: cell-based, mouse; details: for mRNA expression level of Six2: embryonic stem cells, EX527 5-10 uM, resveratrol 10-20 uM, FIG. 7B
Experimental: (§1) The cell culture media, from which Leukemia Inhibitory Factor (LIF; Milipore, USA) was removed, were treated with 100 nmol/L Retinoic acid and 10 ng/mL Activin A, and then mRNA expression levels of Six2 and WT1, kidney precursor cells, were measured. In the process of induction into kidney precursor cells, embryonic stem cells were inoculated into wells of a 6-well plate to be cultured therein.
(§2) The media for differentiation into kidney precursor cells were cultured by adding 2 mM Gluta MAX™ (Gibco, USA), 1× Non-essential aminoacid, (1×NEAA; Gibco, USA), 0.1 mM beta-mercaptoethanol (Invitrogen, USA) and […] to DMEM.
(§3) In the step for differentiation of embryonic stem cells into kidney precursor cells, mRNA expression levels of Six2 and WT1, indicators of kidney precursor cells, were measured by a PCR method. Each primer used in the PCR method was as represented in Table 2 and was manufactured by Bioneer (Korea). GAPDH was used as a control group for the reliability of the PCR method.
(§4) In the same manner as in Example 6, differentiation of embryonic stem cells into kidney precursor cells was induced, each cell was harvested on day 11 of differentiation induction and then total RNAs were extracted using TRIzol reagent (Life Technology, USA). The extracted RNAs were synthesized into cDNAs using a cDNA synthesis kit (Roche, Germany) and a PCR method was carried out using the primers represented in Table 2.
(§5) In order to confirm the differentiation of embryonic stem cells into kidney precursor cells according to the inhibition or promotion of SIRT1 protein expression, the differentiation of the embryonic stem cells (SIRT1+/+; WT) expressing the SIRT1 genes, which were prepared in Example 1, into kidney precursor cells was confirmed. The differentiation was confirmed by protein expression levels of Six2 and WT1, indicators of kidney precursor cells.
(§6) In the step for differentiation of embryonic stem cells into kidney precursor cells, mRNA expression levels of Six2 and WT1, indicators of kidney precursor cells, were measured by a quantitative PCR method.

WT1 mRNA expression = experiment: Quantitative PCR of WT1 mRNA during differentiation of embryonic stem cells into kidney precursor cells; assay type: cell-based, mouse; details: for mRNA expression level of WT1: embryonic stem cells, EX527 5-10 uM, resveratrol 10-20 uM, FIG. 7A
Experimental: as §1, §2, §3, §4, §5, §6

[1] = tested on: mouse embryonic stem cells (SIRT1+/+; WT), differentiation into adipocytes; experiment: Oil Red O staining of embryonic stem cells differentiated into adipocytes; assay type: cell-based; details: for differentiation into adipocytes versus group without inhibitor (Oil Red O): EX527 10 μM, FIG. 4
Experimental: In the present disclosure, in order to determine whether differentiation of embryonic stem cells into adipocytes was affected by the presence or absence of SIRT1 protein expression, degrees of differentiation of the embryonic stem cells (SIRT1+/+; WT) expressing the SIRT1 genes and the mouse embryonic stem cells lacking SIRT1 genes (SIRT1−/−; KO), prepared in Example 1, were determined, and when EX527 (10 μM, Tocris, UK), SIRT1 inhibitor, was treated with SIRT1+/+ embryonic stem cells, the degree of lipid differentiation according to SITRT1 inhibition was determined.
In the hanging-drop culture, 1000 embryonic stem cells were added into 20 μl to prepare a single embryoid body, the process of induction into adipocytes was cultured by inoculating 15 cultures into each well using a 6-well plate.
The medium for differentiation into adipocyte was prepared by adding 85 nM insulin (Sigma, USA), 2 nM triiodothyronine (Sigma, USA) and 2 μM rosiglitazone (Sigma, USA) to DMEM and embryoid bodies were cultured, the medium exchange was performed daily.
In addition, SIRT1 inhibitor EX527 was added to SIRT1+/+ embryonic stem cells until the early 5th day of differentiation into adipocytes.
Oil Red O staining was performed to determine whether the differentiation into adipocytes was successfully performed in mouse embryonic stem cells differentiated for 21 days in Example 2.
First, SIRT1+/+ cells, SIRT1−/− cells, and SIRT1+/+ cells differentiated by treatment with SIRT1 inhibitor were treated with 10% formaldehyde to fix the cells, the formaldehyde was washed with phosphate buffered saline three times and then was treated with 60% isopropanol. Then, 2 ml Oil Red O staining solution was added and the mixture was stained at room temperature for 30 minutes in the dark, and then was washed with phosphate buffered saline three times.
Oil Red O staining was performed on the lipid droplets in the differentiated adipocytes. After staining, the cells were observed using a microscope to identify red-stained fat adipocytes.
When the observation was completed, stained dye in adipocyte was extracted using 1 ml isopropanol per well and optical density (OD) was measured at 500 nm with an ELISA reader. The Oil Red O staining solution is a solution of 500 mg of Oil Red O dye (Sigma, USA) in 100 ml isopropanol, mixed with distilled water at a ratio of 6:4 and filtered using a 0.45 μm filter.
In the same manner as in Example 2, differentiation of embryonic stem cells into adipocytes was induced. The samples were divided into various groups: a group treated for 0 to 5 days at the early stage of differentiation, a group treated for 7 to 21 days at the latter stage of differentiation, and a group treated for 0 to 21 days during the entire differentiation period, which were treated with the SIRT1 inhibitor.

PPARγ mRNA expression = experiment: PCR of PPARγ mRNA during adipocyte differentiation of embryonic stem cells; assay type: cell-based, mouse; details: SIRT1+/+ cells treated with EX527 10 μM, harvested 7 and 10 days after induction, FIG. 3
Experimental: (§7) In the present disclosure, in order to confirm the mechanism of regulating the differentiation of embryonic stem cells into adipocytes by SIRT1, in the step of differentiating into adipocytes, mRNA expression levels of peroxisome proliferator-activated receptors-γ (PPARγ), CCAAT/enhancer-binding protein-α (C/EBP α) and fatty acid binding protein 4 (FABP4) in adipocytes were measured by a PCR method. Each primer used in the PCR method was as represented in Table 1 and was manufactured by Bioneer (Korea). GAPDH was used as a control group for the reliability of the PCR method.
as §4, with “2,” for “6,”, “adipocytes” for “kidney precursor cells”, “7 and 10 days after induction” for “day 11”, “lipid differentiation,” for “differentiation induction”, “and” for “and then”, “1.” for “2.”

C/EBP α mRNA expression = experiment: PCR of C/EBP α mRNA during adipocyte differentiation of embryonic stem cells; assay type: cell-based, mouse; details: SIRT1+/+ cells treated with EX527 10 μM, harvested 7 and 10 days after induction, FIG. 3
Experimental: as §7
as §4, with “2,” for “6,”, “adipocytes” for “kidney precursor cells”, “7 and 10 days after induction” for “day 11”, “lipid differentiation,” for “differentiation induction”, “and” for “and then”, “1.” for “2.”

FABP4 mRNA expression = experiment: PCR of FABP4 mRNA during adipocyte differentiation of embryonic stem cells; assay type: cell-based, mouse; details: SIRT1+/+ cells treated with EX527 10 μM, harvested 7 and 10 days after induction, FIG. 3
Experimental: as §7
as §4, with “2,” for “6,”, “adipocytes” for “kidney precursor cells”, “7 and 10 days after induction” for “day 11”, “lipid differentiation,” for “differentiation induction”, “and” for “and then”, “1.” for “2.”

SMILES | mRNA expression level of Six2 (Six2 mRNA expression) | expression of Six2 compared with control (Six2 mRNA expression; resveratrol 20 μM) | mRNA expression level of WT1 (WT1 mRNA expression) | expression of WT1 compared with control (WT1 mRNA expression; resveratrol 20 μM) | differentiation into adipocytes versus group without inhibitor (Oil Red O) ([1]; treated 0 to 5 days, early stage of differentiation) | differentiation into adipocytes versus group without inhibitor (Oil Red O) ([1]; treated 0 to 21 days, entire differentiation period) | differentiation into adipocytes versus group without inhibitor (Oil Red O) ([1]; treated 7 to 21 days, latter stage of differentiation) | adipocyte differentiation (lipid droplets, Oil Red O staining, microscope) versus SIRT1+/+ cells ([1]; SIRT1+/+ cells, EX527 10 μM until early 5th day of differentiation, 21 days differentiation, FIG. 2A) | reduction of adipocyte differentiation (absorbance at 500 nm of extracted Oil Red O) ([1]; SIRT1+/+ cells, EX527 10 μM until early 5th day, compared to SIRT1+/+ cells, FIG. 2B) | mRNA expression of PPARγ (PPARγ mRNA expression) | mRNA expression of C/EBP α (C/EBP α mRNA expression) | mRNA expression of FABP4 (FABP4 mRNA expression) | mRNA expression level of Six2 (Six2 mRNA expression; listed as SIRT1 inhibitor) | mRNA expression level of WT1 (WT1 mRNA expression; listed as SIRT1 inhibitor)
Oc1ccc(C=Cc2cc(O)cc(O)c2)cc1 [resveratrol] | significantly increased | significantly promoted | significantly increased | significantly promoted | – | – | – | – | – | – | – | – | – | –
NC(=O)C1CCCc2c1[nH]c1ccc(Cl)cc21 (stereo not shown) [EX527, 6-Chloro-2,3,4,9-tetrahydro-1H-Carbazole-1-carboxamide] | significantly decreased | – | significantly decreased | – | decrease in differentiation into adipocytes | not significantly different | more differentiated into adipocytes | remarkably lower | about 38% | significantly decreased | significantly decreased | significantly decreased | decreased | decreased
